Laboratory results as given in patent publication EP2899280A1, “Process for the enzymatic production of oligo-/polyesters” (Ernst-Moritz-Arndt-Universität Greifswald, priority 2014, dated 2015).

Test: Autohydrolysis of ε-CL (pH-STAT titration)
Format: physicochemical
Conditions: Distilled water (pH 7.0), 30 °C, based on 100 mM ε-CL as 100 %
Procedure: All measurements were done with the 877 Titrino Plus from Metrohm (Filderstadt, Germany).
Using the pH-STAT, the autohydrolysis of ε-CL at different temperatures and pH values was determined. Furthermore, it was investigated whether CAL-A is able to hydrolyze ε-CL in an aqueous reaction system. The Bacillus subtilis esterase 2 (BS2) served as positive control in the hydrolysis of ε-caprolactone to 6-hydroxycaproic acid leading to a measureable pH change in the pH-STAT.
For the determination of autohydrolysis, 100 mM ε-CL (Sigma-Aldrich, St- Louis, United States; 97 % purity) were dissolved in 20 ml Tris-HCl buffer (20 mM, pH 7.5) or 20 ml distilled water. The measurement was carried out at 25°C and 30°C over 15 min. For titration, 0.1 N NaOH was used to maintain the pH value constant.

## O=C1CCCCCO1 [ε-CL, ε-caprolactone]
  Conversion [%] (autohydrolysis): 1.075 ± 0,00090%
